These cell lines were tested with CC(C)(C)c1nc(-c2cccc(NS(=O)(=O)c3c(F)cccc3F)c2F)c(-c2ccnc(N)n2)s1 [Dabrafenib] + C[C@]1(O)C[C@@H](c2nc(-c3ccc4ccc(-c5ccccc5)nc4c3)c3c(N)nccn32)C1 [Linsitinib] (partner 1 µM) (assay: relative viability (nuclei count vs DMSO), 5 days (fraction); higher = more cells survive). Conditions: first compound 0.003 µM.
Outline: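 Each reported value is a median over duplicate plates. It expresses relative viability: treated-well nuclei count divided by vehicle-well nuclei count. Lung cancer cell lines in 1536-well plates were dosed by pin tool a day after seeding, alone with one drug or with a fixed anchor-drug dose plus five library-drug doses (not always all listed) in √10 steps, and nuclei were counted after 5 days.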
SW 1573 showed a relative viability of 0.827. With NCI-H838 the relative viability was 0.994. NCI-H3122 showed a relative viability of 0.943. NCI-H1563 gave a relative viability of 1.16. With NCI-H1915 the relative viability was 1.11. NCI-H1975 gave a relative viability of 1.06. LK-2 was tested, and the relative viability was 0.587. NCI-H2087 was tested, and the relative viability was 0.979. In the case of NCI-H661, the relative viability is reported as 0.501. Work on NCI-H1993 yielded a relative viability of 0.633. PC-3 [JPC-3] gave a relative viability of 0.943. In the case of NCI-H2009, the relative viability is reported as 1.16. NCI-H2347 showed a relative viability of 0.675. In the case of NCI-H520, the relative viability is reported as 1.01. With LXF-289 the relative viability was 0.992. LC-2-ad showed a relative viability of 0.93. Work on 201T yielded a relative viability of 0.918. NCI-H1666 gave a relative viability of 0.841. NCI-H2023 was tested, and the relative viability was 0.639. With HARA the relative viability was 0.973. SK-MES-1 was tested, and the relative viability was 1.07.

Same assay, conditions: first compound 0.009487 µM
SW 1573 gave a relative viability of 0.844. Cell Line NCI-H838 has a relative viability of 1.04. EPLC-272H showed a relative viability of 1.36. With NCI-H3122 the relative viability was 1.02. NCI-H1563 showed a relative viability of 1.18. Cell Line NCI-H1915 has a relative viability of 1.14. With NCI-H727 the relative viability was 0.312. NCI-H1975 gave a relative viability of 1.04. LK-2 gave a relative viability of 0.875. Cell Line HCC-366 has a relative viability of 0.787. Work on NCI-H2087 yielded a relative viability of 0.862. With LCLC-97TM1 the relative viability was 0.18. Work on NCI-H661 yielded a relative viability of 0.594. NCI-H2405 was tested, and the relative viability was 0.967. Work on NCI-H1993 yielded a relative viability of 0.772. Work on PC-3 [JPC-3] yielded a relative viability of 0.977. For NCI-H2009, the relative viability was 1.09. Cell Line NCI-H2347 has a relative viability of 0.965. NCI-H520 gave a relative viability of 0.93. LXF-289 gave a relative viability of 0.976. In the case of NCI-H358, the relative viability is reported as 1.03. Cell Line LC-2-ad has a relative viability of 0.768. In the case of 201T, the relative viability is reported as 1.07. NCI-H2023 showed a relative viability of 0.667. Work on NCI-H322M yielded a relative viability of 1.02. Cell Line HARA has a relative viability of 0.869. SK-MES-1 gave a relative viability of 1.04.

Same assay, conditions: first compound 0.03 µM
In the case of SW 1573, the relative viability is reported as 0.722. Work on NCI-H838 yielded a relative viability of 0.95. Cell Line EPLC-272H has a relative viability of 1.02. NCI-H3122 showed a relative viability of 1.01. Work on NCI-H1563 yielded a relative viability of 1.16. NCI-H1915 was tested, and the relative viability was 1.08. NCI-H727 was tested, and the relative viability was 0.29. NCI-H1975 gave a relative viability of 0.889. LK-2 showed a relative viability of 0.225. HCC-366 was tested, and the relative viability was 0.0905. NCI-H2087 showed a relative viability of 0.779. LCLC-97TM1 was tested, and the relative viability was 0.187. With NCI-H661 the relative viability was 0.375. NCI-H1993 gave a relative viability of 0.658. For PC-3 [JPC-3], the relative viability was 0.955. With NCI-H2009 the relative viability was 1.08. In the case of NCI-H2347, the relative viability is reported as 1.08. Work on NCI-H520 yielded a relative viability of 0.741. In the case of LXF-289, the relative viability is reported as 1.04. NCI-H358 showed a relative viability of 0.705. In the case of LC-2-ad, the relative viability is reported as 0.802. Cell Line 201T has a relative viability of 0.941. Work on NCI-H1666 yielded a relative viability of 0.846. NCI-H2023 was tested, and the relative viability was 0.595. HARA showed a relative viability of 0.841. Work on SK-MES-1 yielded a relative viability of 1.06.

Same assay, conditions: first compound 0.09487 µM
Work on SW 1573 yielded a relative viability of 0.792. Work on NCI-H838 yielded a relative viability of 0.97. EPLC-272H showed a relative viability of 0.939. NCI-H3122 showed a relative viability of 1.01. For NCI-H1563, the relative viability was 1.2. NCI-H1915 gave a relative viability of 1.02. For NCI-H727, the relative viability was 0.367. Work on NCI-H1975 yielded a relative viability of 0.995. Work on LK-2 yielded a relative viability of 0.381. HCC-366 was tested, and the relative viability was 0.549. NCI-H2087 was tested, and the relative viability was 0.805. Work on NCI-H661 yielded a relative viability of 0.521. With NCI-H2405 the relative viability was 0.735. Cell Line NCI-H1993 has a relative viability of 0.835. Work on PC-3 [JPC-3] yielded a relative viability of 0.964. NCI-H2009 gave a relative viability of 1.01. Work on NCI-H2347 yielded a relative viability of 1.03. NCI-H520 showed a relative viability of 0.853. LXF-289 showed a relative viability of 0.954. Work on NCI-H358 yielded a relative viability of 0.813. In the case of LC-2-ad, the relative viability is reported as 0.764. Work on 201T yielded a relative viability of 1.03. NCI-H1666 gave a relative viability of 1.03. NCI-H2023 showed a relative viability of 0.715. Work on NCI-H322M yielded a relative viability of 0.874. In the case of HARA, the relative viability is reported as 0.905. SK-MES-1 was tested, and the relative viability was 1.04.

Same assay, conditions: first compound 0.3 µM
Cell Line SW 1573 has a relative viability of 0.821. Cell Line NCI-H838 has a relative viability of 1.08. EPLC-272H gave a relative viability of 0.918. Cell Line NCI-H3122 has a relative viability of 1.04. NCI-H1563 was tested, and the relative viability was 1.39. For NCI-H1915, the relative viability was 0.964. NCI-H727 gave a relative viability of 0.465. In the case of NCI-H1975, the relative viability is reported as 0.905. In the case of LK-2, the relative viability is reported as 0.53. Work on HCC-366 yielded a relative viability of 0.892. With NCI-H2087 the relative viability was 0.638. LCLC-97TM1 gave a relative viability of 0.192. Cell Line NCI-H661 has a relative viability of 0.52. NCI-H2405 showed a relative viability of 0.721. With NCI-H1993 the relative viability was 0.721. With PC-3 [JPC-3] the relative viability was 0.978. Work on NCI-H2009 yielded a relative viability of 0.861. Work on NCI-H2347 yielded a relative viability of 0.942. Cell Line NCI-H520 has a relative viability of 1.05. LXF-289 was tested, and the relative viability was 1.08. For NCI-H358, the relative viability was 0.776. Cell Line LC-2-ad has a relative viability of 0.851.
